Measurements taken from patent US3937821A, “Plasma substitute including artificial starch and method for the preparation thereof” (Kyorin Seiyaku Kabushiki Kaisha, priority 1971, dated 1976).

Assays:
Rats [1] = conditions: rat, in vivo
Mice [2] = conditions: mouse, in vivo
Rabbits = conditions: rabbit, in vivo
Method: (§1) Sera from all bleedings were analysed by passive cutaneous anaphylaxis reaction. Arthus reaction in rabbits and active anaphylaxis reaction in guinea pigs were performed too.

guinea pigs = conditions: guinea pig, in vivo
Method: as §1

Mice [3] = conditions: mouse, in vivo; remark: listed apart in the source
Method: as §1

humans = conditions: in vivo, iv
antibodies in human sera [4] = tested on: antibodies in human sera
Rats [5] = conditions: rat, in vivo; cited from earlier work
Mice [6] = conditions: mouse, in vivo; cited from earlier work
patients = conditions: human, in vivo; cited from earlier work
antibodies in human sera [7] = conditions: cited from earlier work

antibodies detectable / immunogenicity (Rabbits): not immunogenic | antibodies detectable / immunogenicity (guinea pigs): not immunogenic | circulating antibodies (Mice [3]): circulating antibodies were detected | antibody production (humans): do not lead to antibody production | sera positive in passive cutaneous anaphylaxis reaction (antibodies in human sera [4]): Three sera gave positive a reaction
Substance: Dextran
anaphylactoid purpura (Rats [1]): anaphylactoid purpura appeared in the paws, ears and tail | anaphylactoid inflammation (Rats [1]; iv): acute, serous anaphylactoid inflammation in the ears, snout and tail | anaphylactoid purpura (Mice [2]): anaphylactoid purpura appeared in the paws, ears and tail | anaphylactoid inflammation (Mice [2]; iv): acute, serous anaphylactoid inflammation in the ears, snout and tail | anaphylactoid reaction (Rats [5]): edema and erythema of paws, ears and snout | anaphylactoid reaction (Mice [6]): edema and erythema of paws, ears and snout | renal lesion or anaphylactic shock (patients): 6 - 8% | human sera contain reacting antibodies; anaphylactic reaction after infusion (antibodies in human sera [7]): human sera contain Dextran reacting antibodies of varying types
